Experimental findings from PMC11315935, “Multi-layered heterochromatin interaction as a switch for DIM2-mediated DNA methylation” (Nature Communications, 2024) are described below.

For this experiment, the system named is DIM2. Nature of the experiment: In vitro DNA methylation assay: effect of HP1 and H3 peptides on DIM2 activity. The class given is biochemical, Neurospora Crassa. Further details: DNA methylation activity of DIM2 in presence of HP1, WT or W98A: unit not given beside the values. The conditions noted are these: for effect on DNA methylation activity of DIM2 (in words): 36-mer DNA duplex, 1.0 µM peptide and/or 2 µM HP1; for DNA methylation activity of DIM2 in presence of HP1, WT or W98A: Sup Fig. 1e, (CTA)12/(TAG)12 DNA duplex, 1.0 µM DIM2, 2 µM HP1, 30 °C, 30 min, pH 8.0. How it is done: In vitro DNA methylation assay was performed in a 20-µL reaction mixture. For the substrate specificity assay, the following DNA duplexes were used as substrates: CG DNA (Upper strand: 5’-[…]-3’), hemimethylated CG DNA (Upper strand: 5’-TAAATTTXGATTAATAAT-3’, X = 5-methylcytosine; Lower strand: 5’-[…] -3’), CHG DNA (Upper strand: 5’-[…]-3’), and CHH DNA (Upper strand: 5’-[…]-3’). The reaction mixture contains 0.25 µM DIM2, 1.0 µM DNA duplex, 1.0 µM synthesized H3K9me3 peptide (residues 1-24 of H3 plus a C-terminal tryptophan), 0.5 µM HP1, and 0.56 µM S-adenosyl-L-[methyl-^3H] methionine with a specific activity of 18 Ci/mmol (PerkinElmer) in buffer containing 50 mM Tris-HCl (pH 8.0), 100 mM NaCl, 0.05% β-mercaptoethanol, 5% glycerol, and 200 µg/mL BSA. For the rest of the DNA methylation assay, each reaction mixture contains 1.0 µM DIM2, […] methionine with a specific activity of 18 Ci/mmol (PerkinElmer) in buffer containing 50 mM Tris-HCl (pH 8.0), 100 mM NaCl, 0.05% β-mercaptoethanol, 5% glycerol, and 200 µg/mL BSA. In addition, 1.0 µM synthesized H3K9me3 or H3K9me0 peptide (residues 1-24 of H3 plus a C-terminal tryptophan) and/or 2 µM HP1 protein was included to evaluate the effect of H3 and HP1 regulation. The reaction mixture was incubated at 30 °C for 30 min, unless indicated otherwise, before being quenched by the addition of 5 µL of 10 mM cold SAM. After the reaction, 8 μL of the mixtures was loaded onto Hybond N nylon membrane (GE Healthcare), which was left to dry out at room temperature. The membrane was subsequently washed with 0.2 M ammonium bicarbonate (pH 8.2) two times (20 min per time), deionized water (20 min) once, and 95% ethanol (5 min) once. After air dried, the membrane carrying each sample was transferred into a vial containing 3 mL scintillation buffer (Fisher). The tritium scintillation was measured and recorded by a Beckman LS6500 counter. Each the reaction was repeated three times.

On to “HP1WT: Neurospora Crassa HP1 (residues 1-266; Q1K612)”, for which the “effect on DNA methylation activity of DIM2 (in words)” value is on record as “slight but notable activity of DIM2”. Besides, for the setting “replicate 1”, the “DNA methylation activity of DIM2 in presence of HP1, WT or W98A” value (from here on “DNA methylation activity … WT or W98A”) was 22.922. Also, the “DNA methylation activity … WT or W98A” value (replicate 2) is 23.125. The “DNA methylation activity … WT or W98A” value (replicate 3) is on record as 22.99.
On to “H3_1-24K9me0: H3K9me0 peptide (residues 1-24 of H3 plus a C-terminal tryptophan), unmethylated H3 K9”, for which the “effect on DNA methylation activity of DIM2 (in words)” value was “failed to synergize with HP1 to boost the DNA methylation activity of DIM2”.
